Laboratory results: PubChem BioAssay AID2060350 (Molecular Pharmacology Branch, DTP, NCI, 2025)

Tested on: PDC 521955-158-R6-J3 spheroids, viability
Assay: Anticancer human tumor 521955-158-R6-J3-PDC patient-derived pancreatic carcinoma cell line growth inhibition [TAK]
Details: spheroids with HUVEC and MSC; for IC50: curve of first compound; for viability, T/C: stronger effect = lower value
Source text: Combinatorial screen of targeted agents with TAK-243 and ipatasertib in multi-cell type tumor spheroids
A high-throughput screen of multi-cell type tumor spheroids was designed to identify active combinations of targeted small molecules and TAK-243 or ipatasertib. Complex spheroids include a stromal component modeled by human endothelial cells (HUVEC) and fibroblasts modeled by human mesenchymal stem cells (MSCs). The concentration ranges selected for each drug and investigational agent were based upon clinically achievable concentrations if the clinical Cmax of the agent was known.
Compounds. The drugs and investigational agents: TAK-243 (785004), ipatasertib (767898), everolimus (733504), selumetinib (741078), bortezomib (756655), trametinib (758246), ixazomib (758254), vemurafenib (761431), dabrafenib (764134), sapanisertib (764658), alpelisib (765974), and copanlisib (816437), were obtained from the National Cancer Institute (NCI) Developmental Therapeutics Program Chemical Repository. The FDA-approved anticancer drug set is available from the NCI Developmental Therapeutics Program. […] The stock solutions were prepared in dimethyl sulfoxide (DMSO, Sigma-Aldrich, St. Louis, MO, cat. D2650) at 800-fold the tested concentration and stored at -70 degrees C prior to their use. All drugs and investigational agents were tested over a range starting from a high concentration at or near the clinical Cmax and decreasing in half-log increments. If the clinical Cmax for an agent had not been determined, the highest concentration tested was 10 microM.
NCI60 Cell Culture. NCI60 cell lines were obtained from the NCI Developmental Therapeutics Program Tumor Repository. For each lot of cells, the Repository performed Applied Biosystems AmpFLSTR Identifiler testing with PCR amplification to confirm consistency with the published Identifier STR profile for each cell line. Cells were kept in continuous culture for no more than 20 passages. The optimal seeding densities for each of the cell lines at each time point assessed were determined prior to performing the concentration response studies. Briefly, the NCI60 human tumor lines were grown as monolayers in RPMI 1640 medium supplemented with 10% FBS and 2 mmol/L L-glutamine.
An additional 2 lines were from the NCI60 cell line panel including melanomas, MALME-3M and SK-MEL-2. Pooled donor human umbilical vein endothelial cells (HUVEC, Lonza, cat. CC-2519) and human mesenchymal stem cells (hMSC, Lonza, cat. PT-2501) were purchased from Lonza (Walkersville, MD).
PDMR cell lines were grown in complete medium (DC medium): Dulbecco's modified Eagle's medium (DMEM)/F12 supplemented with 5% fetal bovine serum (FBS), 2 mM L-glutamine, 100 U/mL penicillin and 100 µg/ml streptomycin, 0.4 µg/ml hydrocortisone, 10 ng/ml epidermal growth factor (EGF) recombinant human protein, 24 µg/mL adenine, and 0.1 mg/mL primocin. During culture from frozen stock vials, PDMR cells were cultured in the same medium containing 10 µM Y-27632 (see Table 3). The PDCs were cultured in complete DMEM/F12 media without 10 microM Y-27632 dihydrochloride for at least two passages prior to the screen. The pooled donor HUVEC and hMSC were cultured in endothelial cell growth medium 2 (PromoCell, Heidelberg, Germany, cat. C-22011) and mesenchymal stem cell growth medium 2 (PromoCell, cat. C-28009), respectively. For all experiments, HUVEC and hMSC were used at passages </=5.
For the pre-screen, cell seeding densities were determined from a titration spanning the range from 5,000 to 313 cells per well. The mct-spheroids including 60% malignant cells, 25% HUVEC and 15% MSC dispensed as a mixture into U-bottom Ultra-Low Attachment 384-well plates (Corning, NY)
High-throughput Drug Combination Screening.
Prior to their inoculation into 384-well plates, malignant cells, HUVEC, and hMSC were removed from T flasks using TrypLE express (Thermo Fisher Scientific, cat. 12605036) and harvested by centrifugation for 5 min at 233 x g. […]
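Further: spheroids exposed to drugs for 7 days before readout.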
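Wherever viability, T/C is given: 100% = DMSO vehicle control viability.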

SMILES: Cn1cnc2c(F)c(Nc3ccc(Br)cc3Cl)c(C(=O)NOCCO)cc21 + CC(C)NCC(C(=O)N1CCN(c2ncnc3c2C(C)CC3O)CC1)c1ccc(Cl)cc1
- IC50 (second compound 0.3 µM): 326 nM
- IC50 (second compound 0.949 µM): 176 nM
- IC50 (second compound 3 µM): 324 nM
- IC50 (second compound 9.49 µM): 141 nM
- IC50 (second compound 30 µM): 186 nM
- viability, T/C (second compound 0.3 µM, first compound 0.00949 µM): 66.8%
- viability, T/C (second compound 0.3 µM, first compound 0.03 µM): 60.1%
- viability, T/C (second compound 0.3 µM, first compound 0.0949 µM): 54.6%
- viability, T/C (second compound 0.3 µM, first compound 0.3 µM): 47.5%
- viability, T/C (second compound 0.3 µM, first compound 0.949 µM): 51.8%
- viability, T/C (second compound 0.3 µM, first compound 3 µM): 38.9%
- viability, T/C (second compound 0.949 µM, first compound 0.00949 µM): 69.6%
- viability, T/C (second compound 0.949 µM, first compound 0.03 µM): 58.4%
- viability, T/C (second compound 0.949 µM, first compound 0.0949 µM): 48.3%
- viability, T/C (second compound 0.949 µM, first compound 0.3 µM): 49.7%
- viability, T/C (second compound 0.949 µM, first compound 0.949 µM): 43.8%
- viability, T/C (second compound 0.949 µM, first compound 3 µM): 25.7%
- viability, T/C (second compound 3 µM, first compound 0.00949 µM): 68.2%
- viability, T/C (second compound 3 µM, first compound 0.03 µM): 60.9%
- viability, T/C (second compound 3 µM, first compound 0.0949 µM): 52.4%
- viability, T/C (second compound 3 µM, first compound 0.3 µM): 51.8%
- viability, T/C (second compound 3 µM, first compound 0.949 µM): 43%
- viability, T/C (second compound 3 µM, first compound 3 µM): 21.6%
- viability, T/C (second compound 9.49 µM, first compound 0.00949 µM): 66.8%
- viability, T/C (second compound 9.49 µM, first compound 0.03 µM): 55.7%
- viability, T/C (second compound 9.49 µM, first compound 0.0949 µM): 47.8%
- viability, T/C (second compound 9.49 µM, first compound 0.3 µM): 49.5%
- viability, T/C (second compound 9.49 µM, first compound 0.949 µM): 33.9%
- viability, T/C (second compound 9.49 µM, first compound 3 µM): 15.8%
- viability, T/C (second compound 30 µM, first compound 0.00949 µM): 64.3%
- viability, T/C (second compound 30 µM, first compound 0.03 µM): 56.7%
- viability, T/C (second compound 30 µM, first compound 0.0949 µM): 49.6%
- viability, T/C (second compound 30 µM, first compound 0.3 µM): 50.1%
- viability, T/C (second compound 30 µM, first compound 0.949 µM): 35.8%
- viability, T/C (second compound 30 µM, first compound 3 µM): 15.1%
